Measured values reported in ChEMBL document CHEMBL1135103, “Design and synthesis of a piperazinylalkylisoxazole library for subtype selective dopamine receptor ligands” (Bioorg Med Chem Lett, 2002).

Tests used:
Experiment in all cases: biochemical
[1] = target: D(2) dopamine receptor (Homo sapiens, UniProt P14416)
Description: Displacement of the radioligand [3H]spiperone from the cloned human Dopamine receptor D2 long expressed in CHO cells

[2] = target: D(3) dopamine receptor (Homo sapiens, UniProt P35462)
Description: Displacement of the radioligand [3H]YM-09151-2 from cloned human Dopamine receptor D3 expressed in CHO cells

[3] = target: T1, D(4) dopamine receptor (Homo sapiens, UniProt P21917)
T1 sequence (P21917 whole entry): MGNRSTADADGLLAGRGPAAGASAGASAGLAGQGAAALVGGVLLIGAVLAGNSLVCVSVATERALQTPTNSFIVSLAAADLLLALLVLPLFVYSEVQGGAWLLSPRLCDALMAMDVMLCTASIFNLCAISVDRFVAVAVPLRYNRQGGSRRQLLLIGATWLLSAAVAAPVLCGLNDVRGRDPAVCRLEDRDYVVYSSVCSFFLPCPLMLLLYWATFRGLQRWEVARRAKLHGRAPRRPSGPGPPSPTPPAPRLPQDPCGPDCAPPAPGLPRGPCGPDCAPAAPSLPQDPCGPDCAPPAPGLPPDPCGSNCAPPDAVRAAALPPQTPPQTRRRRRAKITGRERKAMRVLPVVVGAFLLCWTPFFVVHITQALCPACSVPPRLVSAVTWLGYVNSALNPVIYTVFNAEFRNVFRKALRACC
Description: Displacement of the radioligand [3H]spiperone from the cloned human dopamine receptor D4 expressed in CHO cells

D(2) dopamine receptor, sequence (P14416 whole entry): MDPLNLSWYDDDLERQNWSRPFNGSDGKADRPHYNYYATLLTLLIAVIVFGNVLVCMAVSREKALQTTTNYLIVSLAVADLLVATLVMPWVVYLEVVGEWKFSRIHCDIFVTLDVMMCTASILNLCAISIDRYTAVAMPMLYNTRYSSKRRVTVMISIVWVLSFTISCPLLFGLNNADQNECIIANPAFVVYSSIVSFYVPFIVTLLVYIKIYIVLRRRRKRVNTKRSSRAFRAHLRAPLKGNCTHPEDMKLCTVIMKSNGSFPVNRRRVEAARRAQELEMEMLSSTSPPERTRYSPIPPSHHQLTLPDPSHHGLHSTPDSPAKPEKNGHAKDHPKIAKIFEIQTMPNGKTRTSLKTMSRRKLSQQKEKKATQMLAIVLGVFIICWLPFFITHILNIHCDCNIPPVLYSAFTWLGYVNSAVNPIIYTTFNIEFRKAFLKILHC
D(3) dopamine receptor, sequence (P35462 whole entry): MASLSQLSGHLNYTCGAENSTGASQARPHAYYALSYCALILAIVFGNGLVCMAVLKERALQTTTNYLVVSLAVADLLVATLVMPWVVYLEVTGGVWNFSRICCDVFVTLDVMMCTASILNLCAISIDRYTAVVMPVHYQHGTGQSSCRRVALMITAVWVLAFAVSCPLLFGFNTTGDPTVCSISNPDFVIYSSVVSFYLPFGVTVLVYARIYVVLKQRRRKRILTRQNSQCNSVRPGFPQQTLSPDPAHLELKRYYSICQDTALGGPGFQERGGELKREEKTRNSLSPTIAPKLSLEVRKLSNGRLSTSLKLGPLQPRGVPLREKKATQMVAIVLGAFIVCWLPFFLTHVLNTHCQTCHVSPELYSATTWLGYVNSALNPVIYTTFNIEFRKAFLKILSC

Ki [1] [µM]	Ki [2] [µM]	Ki [3] [µM]	Compound
1.47	0.06	1.7	O=[N+]([O-])c1cccc(-c2cc(CCCCN3CCN(c4ccccc4)CC3)on2)c1
0.62	0.052	2.15	c1ccc(C(c2ccccc2)N2CCN(CCCCc3cc(-c4cccs4)no3)CC2)cc1
1.46	0.03	1.35	Fc1ccc(-c2cc(CCCCN3CCN(C(c4ccccc4)c4ccccc4)CC3)on2)cc1
3.83	0.016	1.12	COc1ccc(-c2cc(CCCCN3CCN(C(c4ccccc4)c4ccccc4)CC3)on2)c(OC)c1
3.37	0.018	0.541	c1ccc(-c2cc(CCCCN3CCN(c4ccccc4)CC3)on2)cc1
0.44	0.0065	0.034	COc1ccc(-c2cc(CCCCN3CCN(c4ccccc4OC)CC3)on2)c(OC)c1
0.095	0.019	0.051	CCOc1ccccc1N1CCN(CCCCc2cc(-c3cccc([N+](=O)[O-])c3)no2)CC1
0.491	0.04	0.603	C(=C\c1cc(CCCCN2CCN(C(c3ccccc3)c3ccccc3)CC2)on1)/c1ccccc1
0.119	0.0026	0.028	CCOc1ccccc1N1CCN(CCCCc2cc(-c3ccc(OC)c(OC)c3)no2)CC1
1.52	0.019	2.31	O=[N+]([O-])c1cccc(-c2cc(CCCCN3CCN(C(c4ccccc4)c4ccccc4)CC3)on2)c1
1.73	0.0095	0.198	COc1ccccc1N1CCN(CCCCc2cc(-c3ccccc3)no2)CC1
4.14	0.015	0.117	c1ccc(N2CCN(CCCCc3cc(-c4cccs4)no3)CC2)cc1
1.4	0.038	0.413	COc1ccc(-c2cc(CCCCN3CCN(c4ccccc4C)CC3)on2)cc1OC
0.585	0.01	0.058	Fc1ccccc1N1CCN(CCCCc2cc(/C=C/c3ccccc3)no2)CC1
2.62	0.02	2.44	COc1ccc(-c2cc(CCCCN3CCN(C(c4ccccc4)c4ccccc4)CC3)on2)cc1OC
5.15	0.02	0.233	COc1ccc(-c2cc(CCCCN3CCN(c4ccccc4F)CC3)on2)cc1OC
6.51	0.292	0.683	Cc1ccccc1N1CCN(CCCCc2cc(-c3ccccc3)no2)CC1
0.341	0.009	0.034	CCOc1ccccc1N1CCN(CCCCc2cc(-c3ccccc3)no2)CC1
9.72	0.027	0.346	C(=C\c1cc(CCCCN2CCN(c3ccccc3)CC2)on1)/c1ccccc1
0.321	0.023	0.033	COc1ccccc1N1CCN(CCCCc2cc(-c3ccc(F)cc3)no2)CC1
0.964	0.015	0.088	COc1ccccc1N1CCN(CCCCc2cc(/C=C/c3ccccc3)no2)CC1
0.418	0.0052	0.257	COc1ccc(-c2cc(CCCCN3CCN(c4ccccc4OC)CC3)on2)cc1OC
3.39	0.024	0.774	COc1ccc(-c2cc(CCCCN3CCN(c4ccccc4)CC3)on2)cc1OC
2.2	0.016	0.076	COc1ccc(-c2cc(CCCCN3CCN(c4ccccc4)CC3)on2)c(OC)c1
0.726	0.0047	0.021	COc1ccccc1N1CCN(CCCCc2cc(-c3cccs3)no2)CC1
0.486	0.015	2.24	c1ccc(-c2cc(CCCCN3CCN(C(c4ccccc4)c4ccccc4)CC3)on2)cc1
2.11	0.163	0.465	Cc1ccccc1N1CCN(CCCCc2cc(-c3cccs3)no2)CC1
2.53	0.012	0.096	Fc1ccc(-c2cc(CCCCN3CCN(c4ccccc4)CC3)on2)cc1
0.295	0.006	0.05	COc1ccccc1N1CCN(CCCCc2cc(-c3cccc([N+](=O)[O-])c3)no2)CC1

Compound	Ki [1] [µM]	Ki [2] [µM]	Ki [3] [µM]
CCOc1ccccc1N1CCN(CCCCc2cc(-c3cccs3)no2)CC1	0.194	0.0039	0.012
